target: KDM5B (Homo sapiens (Human), UniProt Q9UGL1); assay: KDM5B TR-FRET Enzyme Activity Assay; format: biochemical; settings: LANCE TR-FRET; 5 nM full-length recombinant KDM5B; ten point titration 100000 nM to 5.08 nM
Outline: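 Full-length KDM5B from Sf21 cells (5 nM) was preincubated 30 min with compound in HEPES pH 7.3 buffer with ascorbate and 2 μM Fe(II). Reaction with 500 nM biotinylated H3K4Me3 peptide and 500 nM α-ketoglutarate ran 60 min. Product was detected by TR-FRET (Eu-anti-H3K4Me1-2/streptavidin-Dylight 650, 665/615 ratio); IC50 came from a 4-parameter fit.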

Sequence of KDM5B (Q9UGL1 whole entry): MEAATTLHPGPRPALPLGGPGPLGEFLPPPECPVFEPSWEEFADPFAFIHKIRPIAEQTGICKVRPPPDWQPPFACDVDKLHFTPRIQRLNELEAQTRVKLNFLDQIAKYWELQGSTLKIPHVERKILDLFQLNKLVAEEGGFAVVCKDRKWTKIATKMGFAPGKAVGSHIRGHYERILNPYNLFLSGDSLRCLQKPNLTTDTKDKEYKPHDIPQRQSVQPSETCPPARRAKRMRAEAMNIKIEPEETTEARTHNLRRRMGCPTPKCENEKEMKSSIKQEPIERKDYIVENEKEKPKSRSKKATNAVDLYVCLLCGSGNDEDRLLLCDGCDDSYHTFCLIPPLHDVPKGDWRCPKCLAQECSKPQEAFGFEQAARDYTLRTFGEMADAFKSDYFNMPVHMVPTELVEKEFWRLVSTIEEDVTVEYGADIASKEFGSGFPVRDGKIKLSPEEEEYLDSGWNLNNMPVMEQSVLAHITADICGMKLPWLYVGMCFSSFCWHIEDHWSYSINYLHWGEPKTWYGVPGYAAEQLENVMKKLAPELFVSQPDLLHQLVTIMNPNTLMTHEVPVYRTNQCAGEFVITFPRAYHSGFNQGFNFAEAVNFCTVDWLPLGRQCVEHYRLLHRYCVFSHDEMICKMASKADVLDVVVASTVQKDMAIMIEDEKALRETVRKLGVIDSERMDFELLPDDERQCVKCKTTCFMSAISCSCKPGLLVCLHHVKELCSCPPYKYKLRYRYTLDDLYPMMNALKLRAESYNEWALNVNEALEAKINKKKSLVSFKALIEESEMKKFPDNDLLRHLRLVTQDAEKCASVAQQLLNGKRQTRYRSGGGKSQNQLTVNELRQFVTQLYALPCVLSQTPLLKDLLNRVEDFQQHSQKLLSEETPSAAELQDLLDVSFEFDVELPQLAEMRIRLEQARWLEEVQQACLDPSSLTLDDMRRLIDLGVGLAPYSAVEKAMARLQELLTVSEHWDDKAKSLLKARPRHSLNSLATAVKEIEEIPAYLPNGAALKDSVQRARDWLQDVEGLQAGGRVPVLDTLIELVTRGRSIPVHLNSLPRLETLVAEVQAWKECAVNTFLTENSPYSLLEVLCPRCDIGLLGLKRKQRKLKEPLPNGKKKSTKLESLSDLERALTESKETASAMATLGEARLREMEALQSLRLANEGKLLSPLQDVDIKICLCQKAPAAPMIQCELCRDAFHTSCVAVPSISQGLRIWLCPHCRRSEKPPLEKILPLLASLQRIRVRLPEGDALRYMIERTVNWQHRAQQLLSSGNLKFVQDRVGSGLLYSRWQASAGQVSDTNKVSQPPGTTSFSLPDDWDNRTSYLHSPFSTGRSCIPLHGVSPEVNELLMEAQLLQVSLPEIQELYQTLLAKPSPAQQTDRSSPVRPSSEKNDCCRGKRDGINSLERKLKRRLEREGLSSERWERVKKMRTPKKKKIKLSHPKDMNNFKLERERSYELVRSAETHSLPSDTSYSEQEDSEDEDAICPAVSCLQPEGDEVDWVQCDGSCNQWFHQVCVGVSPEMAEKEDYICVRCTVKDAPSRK

IC50 [nM] | SMILES
41.9 | CC(C)c1c(-c2csc(-n3cccn3)n2)[nH]c2ncnn2c1=O [Example 11-137, 6-(1-methylethyl)-5-[2-(1H-pyrazol-1-yl)-1,3-thiazol-4-yl][1,2,4]triazolo[1,5-a]pyrimidin-7(4H)-one]
657 | CC(C)c1c(-c2ccsc2)[nH]c2ncnn2c1=O [Example 11-138, 6-(1-methylethyl)-5-thiophen-3-yl[1,2,4]triazolo[1,5-a]pyrimidin-7(4H)-one]
193 | CC(C)c1c(-c2cnco2)[nH]c2ncnn2c1=O [Example 11-139, 6-(1-methylethyl)-5-(1,3-oxazol-5-yl)[1,2,4]triazolo[1,5-a]pyrimidin-7(4H)-one]
124 | CC(C)c1c(-c2csc(-n3cccc3)n2)[nH]c2ncnn2c1=O [Example 11-140, 6-(1-methylethyl)-5-[2-(1H-pyrrol-1-yl)-1,3-thiazol-4-yl][1,2,4]triazolo[1,5-a]pyrimidin-7(4H)-one]
59.8 | CC(C)c1csc(-c2[nH]c3ncnn3c(=O)c2C(C)C)c1 [Example 11-141, 6-(1-methylethyl)-5-[4-(1-methylethyl)thiophen-2-yl][1,2,4]triazolo[1,5-a]pyrimidin-7(4H)-one]
112 | CC(C)c1c(-c2cc(C3CCC3)cs2)[nH]c2ncnn2c1=O [Example 11-142, 5-(4-cyclobutylthiophen-2-yl)-6-(1-methylethyl)[1,2,4]triazolo[1,5-a]pyrimidin-7(4H)-one]
79.3 | CC(C)c1c(-c2cc(C3CC3)cs2)[nH]c2ncnn2c1=O [Example 11-143, 5-(4-cyclopropylthiophen-2-yl)-6-(1-methylethyl)[1,2,4]triazolo[1,5-a]pyrimidin-7(4H)-one]
76.2 | CC(C)c1c(-c2cc(-c3ccccc3)cs2)[nH]c2ncnn2c1=O [Example 11-144, 6-(1-methylethyl)-5-(4-phenylthiophen-2-yl)[1,2,4]triazolo[1,5-a]pyrimidin-7(4H)-one]
5.08 | CC(C)c1c(-c2cnn(C(C)(C)C)c2)[nH]c2ncnn2c1=O [Example 11-145, 5-(1-tert-butyl-1H-pyrazol-4-yl)-6-(1-methylethyl)[1,2,4]triazolo[1,5-a]pyrimidin-7(4H)-one]
5.22 | CC(C)CCn1cc(-c2[nH]c3ncnn3c(=O)c2C(C)C)cn1 [Example 11-146, 5-[1-(3-methylbutyl)-1H-pyrazol-4-yl]-6-(1-methylethyl)[1,2,4]triazolo[1,5-a]pyrimidin-7(4H)-one]
413 | CC(C)c1c(-c2cccs2)[nH]c2ncnn2c1=O [Example 11-147, 6-(1-methylethyl)-5-thiophen-2-yl[1,2,4]triazolo[1,5-a]pyrimidin-7(4H)-one]
30.7 | CC(C)c1c(-c2ccc(C(F)(F)CO)nc2)[nH]c2ncnn2c1=O [Example 12-2, 5-[6-(1,1-difluoro-2-hydroxyethyl)pyridin-3-yl]-6-(1-methylethyl)[1,2,4]triazolo[1,5-a]pyrimidin-7(4H)-one]
22.5 | CC(C)c1c(-c2cncc(CO)c2)[nH]c2ncnn2c1=O [Example 12-3, 5-[5-(hydroxymethyl)pyridin-3-yl]-6-(1-methylethyl)[1,2,4]triazolo[1,5-a]pyrimidin-7(4H)-one]
